This is an account of results in BindingDB's records for doi:10.1021/jm00039a024 (Eisai, 1994).

Molecules are shown by their SMILES.

This assay has as its target cGMP-specific 3',5'-cyclic phosphodiesterase, PDE5 (Sus scrofa). The assay can be described thus: Inhibitory activity against cGMP-phosphodiesterase from porcine aorta.

As usually defined, the IC50 is the concentration needed to halve the response being measured. Consider `COc1ccc2ncnc(NCc3ccc4c(c3)OCO4)c2c1` [Benzo[1,3]dioxol-5-ylmethyl-(6-methoxy-quinazolin-4-yl)-amine], for which half-maximal inhibition (IC50) required 230 nM.
`O=c1c2ccc(Cl)cc2ncn1Cc1ccc2c(c1)OCO2` [3-Benzo[1,3]dioxol-5-ylmethyl-7-chloro-3H-quinazolin-4-one] yielded a half-inhibitory concentration (IC50) of 8700 nM. This IC50 lies about 38-fold higher than the previous one.
`CN(C)C(=O)c1ccc2ncnc(NCc3ccc4c(c3)OCO4)c2c1` [4-[(Benzo[1,3]dioxol-5-ylmethyl)-amino]-quinazoline-6-carboxylic acid dimethylamide] came in with a half-inhibitory concentration (IC50) of 2300 nM.
To `COc1ccc2ncnc(NCc3ccc4c(c3)OCO4)c2c1OC` [Benzo[1,3]dioxol-5-ylmethyl-(5,6-dimethoxy-quinazolin-4-yl)-amine] belongs 730 nM; to `CSc1ccc2ncn(Cc3ccc4c(c3)OCO4)c(=O)c2c1` [3-Benzo[1,3]dioxol-5-ylmethyl-6-methylsulfanyl-3H-quinazolin-4-one], 2300 nM; to `CCOC(=O)c1ccc2ncnc(NCc3ccc4c(c3)OCO4)c2c1` [4-[(Benzo[1,3]dioxol-5-ylmethyl)-amino]-quinazoline-6-carboxylic acid ethyl ester], 620 nM.
To `OCc1ccc2ncnc(NCc3ccc4c(c3)OCO4)c2c1` [{4-[(Benzo[1,3]dioxol-5-ylmethyl)-amino]-quinazolin-6-yl}-methanol] belongs 930 nM; to `O=C(c1ccc2ncnc(NCc3ccc4c(c3)OCO4)c2c1)N1CCOCC1` [{4-[(Benzo[1,3]dioxol-5-ylmethyl)-amino]-quinazolin-6-yl}-morpholin-4-yl-methanone], 2700 nM; to `COc1cc(OC)c2ncnc(NCc3ccc4c(c3)OCO4)c2c1` [Benzo[1,3]dioxol-5-ylmethyl-(6,8-dimethoxy-quinazolin-4-yl)-amine], 810 nM.
In turn, `Cc1ccc2ncnc(NCc3ccc4c(c3)OCO4)c2c1` [Benzo[1,3]dioxol-5-ylmethyl-(6-methyl-quinazolin-4-yl)-amine] came in with an IC50 of 100 nM. Compared with the last molecule, the IC50 is about 8.1-fold lower.
To `CCOc1ccc2ncnc(NCc3ccc4c(c3)OCO4)c2c1` [Benzo[1,3]dioxol-5-ylmethyl-(6-ethoxy-quinazolin-4-yl)-amine] belongs 380 nM; to `COc1cc2ncnc(NCc3ccc4c(c3)OCO4)c2cc1SC` [Benzo[1,3]dioxol-5-ylmethyl-(7-methoxy-6-methylsulfanyl-quinazolin-4-yl)-amine], 350 nM.
To `CS(=O)(=O)c1ccc2ncnc(NCc3ccc4c(c3)OCO4)c2c1` [Benzo[1,3]dioxol-5-ylmethyl-(6-methanesulfonyl-quinazolin-4-yl)-amine] belongs 810 nM; to `NC(=O)c1ccc2ncnc(NCc3ccc4c(c3)OCO4)c2c1` [4-[(Benzo[1,3]dioxol-5-ylmethyl)-amino]-quinazoline-6-carboxylic acid amide], 770 nM.
